In patent US20240065261A1, “PENETRATING CRYOPROTECTION AGENTS AND METHODS OF MAKING AND USING SAME” (The Research Foundation for The State University of New York, priority 2020, published 2024):
Where “and” joins values, the source holds several entries; their conditions need not be identical. Identical values can stand only once.

Columns and labels:
[1] = Water solubility; format: physicochemical; conditions: pH 7.4, aqueous buffer
[2] = test system: 3T3 cells; test: Cryopreservation, post-thaw recovery rate, Example 3; format: cell-based; conditions: frozen −80° C. in medium with 400 mM trehalose
Method: Cryopreservation: The cryopreservation effects of EGL-3Pro and EGL-3Phe were tested on 3T3 cells. The cells were incubated with 5 mM or 10 mM EGL-3Pro or 0.5 mM EGL-3Phe or medium only (two control groups) for 72 hours. After incubation, the cells were detached by treating […] pelleted by centrifuging (200×g). The cells were then resuspended in medium with 400 mM trehalose or 5% DMSO (for control 2 group) in cryovials and a small portion of cell suspension were used for counting pre-freeze cell number. The vials were directly put in −80° C. freezer and stored for at least 3 days. The cells were thawed in 37° C. water bath until ice melt, and resuspended in 10 mL fresh medium and pelleted by centrifuging (200×g). The cells were then resuspended in 1 mL fresh medium and counted by cell counter. The recovery rate was obtained by dividing post-thaw lived cell number by pre-freeze lived cell number.

[3] = test system: 3T3 cells; test: Cytotoxicity by CCK-8 kit, Example 3; format: cell-based; conditions: 48 hours
Method: Cytotoxicity: Cytotoxicity of EGL-3Pro and EGL-3Phe were tested by CCK-8 kit on 3T3 cells after incubating for 48 hours at different concentrations.

[4] = test system: NIH-3T3 cells; test: Post-thaw total cell recovery of cryopreserved cells (trypan blue exclusion); format: cell-based; conditions: for Total recovery values compared with cells frozen in media containing 5% DMSO: incubated with 10 mM; for Post-thaw recovery (%) 0-hr / Post-thaw recovery (%) 24-hr / Post-thaw recovery (%) 48-hr: incubated with 10 mM for 48 h, frozen −80° C. 72 h in media with 400 mM trehalose, ±SEM
Method: The delivery of sugar alcohols into cells makes it possible to turn these molecules into intracellular CPAs. […] Total post-thaw cell recovery, defined as the ratio (%) of post-thaw live cells to the number of initially frozen live cells, which provides a more accurate measure of cryoprotective outcome than cell viability, was used to assess the cryoprotective effects of the diesters.
Systematic studies were then performed by incubating the cells (1) with each of diesters 1-4 (10 mM), (2) with unmodified sorbitol, mannitol, xylitol, or erythritol (10 mM), and (3) in medium without any of the diesters or sugar alcohols, at 37° C. for 48 h. The cells treated with diesters 1-4 and the four sugar alcohols were then transferred to freezing media consisting of DMEM, 10% FBS and 400 mM trehalose. The cells incubated with only the medium were divided into two portions, one being directly transferred to the freezing medium containing 400 mM trehalose (control 1) and the other being placed in a different freezing medium consisting of DMEM, 10% FBS and 5% DMSO but without trehalose (control 2). After being frozen at −80° C. for 72 h, the cells were thawed in a warm water bath at 37° C. until ice melted. The post-thaw cells were either immediately analyzed for their survival or were cultured in growth media (DMEM with 10% FBS) for 24 h and 48 h before being analyzed.
Incubation (for cryopreservation). NIH/3T3 cells were seeded into cell culture treated plates (100 mm) at a density of 2×10^4 cells/mL (10 mL/plate), allowed to adhere overnight and then incubated with different sample solutions (10 mL) for 48 hours at 37° C. under 5% CO2. Control cells were incubated with growth medium.
Cryopreservation. At the end of the incubation, the cells were rinsed with PBS (2 mL) and detached using 0.25% trypsin-EDTA (3 mL). The cells were pelleted (200×g, 5 min) and resuspended in growth medium with 400 mM trehalose except for the control-2 group. For control-2 group, cells were resuspended in growth medium with 5% DMSO (v/v). An aliquot of cells of each group was then removed for counting by a DeNovix Celldrop cell counter to obtain prefreeze number of viable cells. The remaining cell suspension was transferred into a 2 mL cryogenic vial. The vials were directly transferred to −80° C. freezer without controlling cooling rate and stored at −80° C. freezer for 3 days. To thaw, cryogenic vials were removed from −80° C. freezer and suspended in a 37° C. water bath until ice melt. To the contents of each vial 1 mL growth medium was added and centrifuged (200×g , 5 min). The supernatant was discarded and cell pellet was resuspended in 1 mL growth cell medium. An aliquot of cell suspension of each group was then removed for counting with a DeNovix Celldrop cell counter to obtain the number of viable cells at 0-hr post-thaw. The remaining cell suspension was split equally and resuspended into two cell culture treated plates (100 mm) with 10 mL growth medium in each plate. The plates were then maintained for either 24 hours or 48 hours at 37° C. under 5% CO2. After being cultured for either 24 hours or 48 hours, the cells were rinsed with PBS (2 mL) and detached using 0.25% trypsin-EDTA (3 mL). The cells were pelleted (200×g, 5 min) and resuspended in growth medium. The cell suspension was then analyzed by DeNovix Celldrop cell counter to obtain number of viable cells at either 24-hr or 48-hr post-thaw.
Trypan Blue Exclusion Assay. For all time points, a sample of cells was mixed 1:1 in 0.4% trypan blue and counted using a DeNovix Celldrop. Cell recovery was calculated as the ratio of viable cells to the number of cells initially frozen.

[5] = test system: NIH-3T3 cells; test: Cell size measurement after incubation with diesters; format: cell-based; conditions: 10 mM, 48 h incubation (FIG. 11)
Method: Incubation (for cell size measurement). NIH/3T3 cells were seeded into 6-well plates at a density of 5×10^4 cells/mL (2 mL/well), allowed to adhere overnight and then incubated with different sample solutions (2 mL) for 48 hours at 37° C. under 5% CO2. Control cells were incubated with culture medium.
Cell size measurement. At the end of the incubation, the cells were rinsed with PBS (1 mL) and detached by 0.25% trypsin-EDTA (1 mL). The cells were pelleted (200×g, 5 min) and resuspended in PBS (1 mL). The average cell size of the cell suspension was then obtained with a DeNovix Celldrop cell counter. Bright field/counted image and histogram for one count were attached as an example (FIG. 19). Average cell diameter and statistical analysis were obtained from the histograms.

[6] = test system: NIH-3T3 cells; test: Live/dead fluorescence microscopy of post-thaw cells (calcein-AM / ethidium homodimer-1); format: cell-based; conditions: 24 h post-thaw; incubated with 10 mM for 48 h, frozen in media with 400 mM trehalose (FIG. 14)
Method: DIC and Fluorescence images capturing. NIH/3T3 cells were treated as the same as for cryopreservation experiment and were thawed in a 37° C. water bath until ice melt. Cells in each vial were then pelleted (200×g, 5 min), re-suspended in 1 mL fresh growth medium and plated into 96 well plate and grown for 24 hours. Each well was washed with sterile PBS (100 μL). Sterile PBS (200 μL) containing 2 μM calcein-AM and 4 μM ethidium homodimer-1 (EthD-1) was then added to each well. The 96-well plate was then incubated in a CO2 incubator at 37° C. for 30 min. Fresh cells without freezing were plated at similar density in 96-well plate as comparison. DIC and fluorescence microscopy images were captured at 509 and 580 nm on Axioplan 2 fluorescent microscope (Zeiss [Carl Zeiss], Thornwood, NY) with an Axiocam MRm camera (Zeiss). Axiovision 4 software (Zeiss) was used for image acquisition. Digital images were processed with ImageJ (imagej.nih.gov/ij/).

[7] = test system: NIH-3T3 cells; test: Cell growth curve; format: cell-based; conditions: 10 mM, incubated for up to 72 hrs (FIG. 17)
Method: Cell growth curve. NIH/3T3 cells were seeded into 6-well plates at a density of 5×10^4 cells/mL (2 mL/well), allowed to adhere overnight and then incubated with different sample solutions (2 mL) up to 72 hours at 37° C. under 5% CO2. Control cells were incubated with culture medium. After certain time incubation, cells were rinsed with PBS (1 mL), detached by 0.25% trypsin-EDTA (1 mL), pelleted (200×g, 5 min) and resuspended in PBS (1 mL). The cell number were obtained by a DeNovix Celldrop cell counter. The 0 hour was set as the time point just after overnight adhering.

[8] = test system: NIH-3T3 cells; test: Post-thaw viability of cryopreserved NIH-3T3 cells (CCK-8), Example 1; format: cell-based; conditions: Table 3, frozen −80° C. 72 hours, 400 mM trehalose, 10% DMSO set as 100%
Method: Cryopreservation protocol. […] Discarded 95% of the old media and added 0.5 mL new DMEM (pH=7.4) with 10% FBS and 400 mM trehalose (filtered with 0.22 μm filter) and re-suspended the cells. • Transferred the cell culture to cryo-tube and stored the tubes at −80° C. for 3 days. • Thawed the cells at 37° C. in a water bath until ice melted. • Counted the cell density in each cryo-tube with cell counter. • Re-cultured the cells in 96-well plate with fresh DMEM (PH=7.4) with 10% FBS. (while keeping cell density the approximately the same for each well). • Used CCK-8 kit to test the post-thaw viability after certain time.

[9] = test system: NIH-3T3 cells; test: Post-thaw total cell recovery of cryopreserved cells (trypan blue exclusion); format: cell-based; conditions: incubated with 5 and 10 mM; frozen in media with 400 mM trehalose (FIG. 12)
[10] = incubated 36 hours at 5 mM without DMSO
[11] = incubated 36 hours at 10 mM without DMSO

Row | solubility [1] [mM] | Structure (SMILES) | 0-hour post thaw recovery (%) ([2]; incubated with 0.5 mM for 72 hours) | Cytotoxicity ([3]; above 1 mM) | Cytotoxicity ([3]; at 0.1 mM) | Cytotoxicity ([3]; at 0.5 mM) | 0-hour post thaw recovery (%) ([2]; incubated with 5 mM for 72 hours) | 0-hour post thaw recovery (%) ([2]; incubated with 10 mM for 72 hours) | Cytotoxicity ([3]; up to 10 mM) | Total recovery values compared with cells frozen in media containing 5% DMSO [4] | Post-thaw recovery (%) 0-hr [4] | Post-thaw recovery (%) 24-hr [4] [%] | Post-thaw recovery (%) 48-hr [4] | Average cell diameter relative to cells incubated with only the culture medium [5] | Post-thaw viability/recovery in fluorescence microscopy images [6] | Growth of cells relative to control [7] | Post-thaw viability (%), 24 hours post thaw [8, 10] [%] | Post-thaw viability (%), 48 hours post-thaw [8, 10] [%] | Post-thaw viability (%), 24 hours post thaw [8, 11] [%] | Post-thaw viability (%), 48 hours post-thaw [8, 11] [%] | Post-thaw 0 h and 48 h total recovery rates compared with cells incubated only with the media [9]
1 | ≤ 2 | N[C@@H](Cc1ccccc1)C(=O)OCC(COC(=O)[C@@H](N)Cc1ccccc1)OC(=O)[C@@H](N)Cc1ccccc1 [EGL-3Phe] | 66.2 ± 10.1 | apparent cytotoxicity | no toxicity | residual cytotoxicity |  |  |  |  |  |  |  |  |  |  |  |  |  |  | 
2 | ≥ 10 | O=C(OCC(COC(=O)[C@@H]1CCCN1)OC(=O)[C@@H]1CCCN1)[C@@H]1CCCN1 [EGL-3Pro] |  |  |  |  | 50.1 ± 6.6 | 65.3 ± 7.3 | didn't show any toxicity |  |  |  |  |  |  |  |  |  |  |  | 
3 |  | CCC(=O)OC[C@@H](O)[C@@H](O)[C@H](O)[C@H](O)COC(=O)CC [MannPr2] |  |  |  |  |  |  |  | the same as those seen with 5% DMSO | 84% and 84.1 ± 3.3% | 73.6 ± 3.2 | 184% and 184.1 ± 14.2% | small but statistically significant increases | much higher recovery than those treated with mannitol or sorbitol | slightly suppressed |  |  |  |  | 
4 |  | CCC(=O)OC[C@@H](O)[C@@H](O)[C@H](O)[C@@H](O)COC(=O)CC [SorbPr2] |  |  |  |  |  |  |  | comparable to those obtained with cells frozen in media containing 5% DMSO | 72.4 ± 3.4% | 65.2 ± 2.2 | 153.2 ± 8.0% | small but statistically significant increases | much higher recovery than those treated with mannitol or sorbitol | slightly suppressed | 94.5 ± 9.1 | 130.1 ± 6.8 | 128.9 ± 2.5 | 183.0 ± 2.9 | above those of cells incubated only with the media
